Source: patent US20220354852A1, “TARGETING WNT SIGNALING FOR IMPROVED GLIOMA IMMUNOTHERAPY” (CITY OF HOPE, priority 2021, published 2022)

What was measured:
[1] = system: tumor cell glycolytic activity; settings: previously shown; cited from earlier work
[2] = system: Wnt target genes BIRC5/Survivin and EphB2; test: Quantitative RT-PCR of Wnt target genes in mouse glioma cell lines; type: cell-based
Description: (§1) FIG. 15. Expression of target genes post-ICG-001 treatment (0-10 μM) by RT-PCR using (A-C) mouse Survivin in GL261-IL13, GL261, and K-luc cells. (D) Survivin in PBT147 human glioma cells. (E, F) Luciferase reporter assay indicating downregulation of Survivin/BIRC5 in PBT017 and PBT030 cell lines.
(§2) FIG. 16 is a table showing the expression of the target genes survivin/BIRC5 post-ICG-001 treatment ([…]) as detected by RT-PCR and Luciferase Reporter Assay.
(§3) ICG-001 differentially affects the expression of the Wnt target genes BIRC5/Survivin and EphB2 in vitro. […] The effects of ICG-001 on Wnt/CBP/β-catenin signaling were further confirmed using a Survivin-luciferase reporter assay (FIG. 15). ICG-001's selective effects on the expression of Survivin and EphB2 may serve as indicators of ICG-001 on target tissue activity in vivo (FIG. 16) and a readout for pharmacokinetics/pharmacodynamics (PK/PD) as used previously in clinical trials with the second-generation CBP/β-catenin specific antagonist PRI-724 (Anthony et al. 2013).

[3] = system: Survivin/BIRC5 (Wnt/CBP/β-catenin signaling); test: Survivin-luciferase reporter assay; type: cell-based, human; settings: PBT017 and PBT030 cell lines
Description: as §1, §2, §3

[4] = system: murine-derived glioma cell lines (K-luc, GL261-parental, and GL261.IL13Rα2 engineered); test: ICG-001 single agent on murine-derived glioma cell lines (growth kinetics); type: cell-based, mouse; settings: ICG-001 0-10 μM, 4 days
Description: FIG. 11. (A, B) Growth kinetics of human PBT glioma lines (PBT017, PBT030, PBT135, PBT144, and PBT147) treated with ICG-001 (0-10 μM) for 7 days and (C) mouse glioma cells (GL261, GL261-IL13, and K-luc) treated with ICG-001 (0-10 μM) for 4 days. Red boxes indicate PBT030 and PBT147 cell lines used for Nanostring and proteomics analysis. Scale bars represent S.D. of triplicate samples. (D-F) Growth kinetics of PBT017 (2,500 cells/well) treated with or without HER2-CAR T cells (500 cells/well) and with or without ICG-001 (0-5 μM). The red line is CAR T cell treatment only and the bottom three lines are with ICG-001. Experiment was done in quadruplicate and error bars indicate S.D.
(§4) ICG-001 activity in vitro in human and mouse glioma cell lines. Initially, the effects of the specific CBP/β-catenin antagonist ICG-001 was tested in vitro as a single agent on human and mouse glioma cell lines (5 PBT human and 3 mouse glioma lines).

[5] = target: β-catenin/CBP interaction (Homo sapiens, UniProt Q92793); settings: cited from earlier work
β-catenin/CBP interaction, sequence (Q92793 whole entry): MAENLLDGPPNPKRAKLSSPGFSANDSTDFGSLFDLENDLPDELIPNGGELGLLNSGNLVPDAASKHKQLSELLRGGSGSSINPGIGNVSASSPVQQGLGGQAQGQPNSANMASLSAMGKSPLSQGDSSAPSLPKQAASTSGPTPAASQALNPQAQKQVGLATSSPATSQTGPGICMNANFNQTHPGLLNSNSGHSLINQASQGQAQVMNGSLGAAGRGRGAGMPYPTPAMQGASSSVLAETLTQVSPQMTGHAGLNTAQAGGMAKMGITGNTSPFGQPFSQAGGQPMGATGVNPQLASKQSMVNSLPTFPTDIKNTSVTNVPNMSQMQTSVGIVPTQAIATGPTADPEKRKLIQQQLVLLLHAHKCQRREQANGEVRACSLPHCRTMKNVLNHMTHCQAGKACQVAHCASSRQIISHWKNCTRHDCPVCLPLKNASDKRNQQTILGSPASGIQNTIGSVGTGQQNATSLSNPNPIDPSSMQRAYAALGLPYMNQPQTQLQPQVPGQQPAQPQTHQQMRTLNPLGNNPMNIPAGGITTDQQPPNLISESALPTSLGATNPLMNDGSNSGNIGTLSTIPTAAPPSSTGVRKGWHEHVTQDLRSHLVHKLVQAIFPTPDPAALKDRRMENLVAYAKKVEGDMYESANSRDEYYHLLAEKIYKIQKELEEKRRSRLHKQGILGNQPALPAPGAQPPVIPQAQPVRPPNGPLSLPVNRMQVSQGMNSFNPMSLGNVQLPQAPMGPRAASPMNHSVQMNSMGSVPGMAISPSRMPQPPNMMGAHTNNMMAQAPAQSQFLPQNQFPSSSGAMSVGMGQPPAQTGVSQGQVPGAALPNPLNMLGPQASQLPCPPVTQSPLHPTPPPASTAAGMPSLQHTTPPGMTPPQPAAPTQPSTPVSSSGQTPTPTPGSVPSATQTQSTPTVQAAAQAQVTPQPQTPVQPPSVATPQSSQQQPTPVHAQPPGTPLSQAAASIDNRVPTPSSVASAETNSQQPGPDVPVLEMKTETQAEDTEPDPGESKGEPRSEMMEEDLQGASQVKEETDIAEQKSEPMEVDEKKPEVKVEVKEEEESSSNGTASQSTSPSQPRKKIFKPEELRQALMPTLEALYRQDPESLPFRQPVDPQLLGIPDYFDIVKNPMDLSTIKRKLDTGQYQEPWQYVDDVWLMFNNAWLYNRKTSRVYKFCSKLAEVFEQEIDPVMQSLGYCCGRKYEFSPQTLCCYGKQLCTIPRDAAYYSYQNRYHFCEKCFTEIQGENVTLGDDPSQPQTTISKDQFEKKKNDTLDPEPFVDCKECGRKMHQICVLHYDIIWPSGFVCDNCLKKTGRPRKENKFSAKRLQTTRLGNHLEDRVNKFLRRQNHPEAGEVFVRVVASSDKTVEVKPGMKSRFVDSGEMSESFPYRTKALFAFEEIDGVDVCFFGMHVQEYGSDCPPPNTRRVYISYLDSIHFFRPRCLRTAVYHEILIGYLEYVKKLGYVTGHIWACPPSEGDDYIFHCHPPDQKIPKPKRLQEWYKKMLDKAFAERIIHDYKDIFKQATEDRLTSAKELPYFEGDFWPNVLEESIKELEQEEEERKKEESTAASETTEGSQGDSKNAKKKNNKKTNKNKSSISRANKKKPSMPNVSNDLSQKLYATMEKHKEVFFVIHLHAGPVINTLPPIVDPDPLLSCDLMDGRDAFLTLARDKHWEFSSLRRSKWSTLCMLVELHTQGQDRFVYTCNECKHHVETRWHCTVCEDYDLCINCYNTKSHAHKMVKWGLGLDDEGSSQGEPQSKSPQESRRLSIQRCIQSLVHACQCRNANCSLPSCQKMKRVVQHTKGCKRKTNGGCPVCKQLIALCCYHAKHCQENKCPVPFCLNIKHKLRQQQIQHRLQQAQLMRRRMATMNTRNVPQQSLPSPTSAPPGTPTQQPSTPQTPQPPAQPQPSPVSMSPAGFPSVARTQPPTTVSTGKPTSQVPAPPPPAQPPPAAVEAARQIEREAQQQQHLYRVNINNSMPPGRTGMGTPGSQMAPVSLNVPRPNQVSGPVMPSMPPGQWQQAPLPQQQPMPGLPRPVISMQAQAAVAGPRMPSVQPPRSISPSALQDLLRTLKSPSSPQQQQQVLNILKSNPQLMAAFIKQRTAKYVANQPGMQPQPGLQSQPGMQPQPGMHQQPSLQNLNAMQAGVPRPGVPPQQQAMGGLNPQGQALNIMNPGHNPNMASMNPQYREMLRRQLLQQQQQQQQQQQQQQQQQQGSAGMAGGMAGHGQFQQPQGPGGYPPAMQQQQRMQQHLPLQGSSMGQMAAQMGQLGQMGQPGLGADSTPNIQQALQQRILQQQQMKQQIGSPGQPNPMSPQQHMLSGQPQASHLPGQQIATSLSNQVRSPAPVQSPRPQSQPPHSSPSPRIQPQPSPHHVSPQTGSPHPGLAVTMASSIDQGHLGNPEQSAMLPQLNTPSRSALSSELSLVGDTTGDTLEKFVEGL

[6] = system: subcutaneous murine K-luc GBM tumors; test: NanoString mouse immune panel of subcutaneous K-luc tumors; type: in vivo; settings: 50 mg/kg/day, compared with untreated controls on day 21
Text: FIG. 23. NanoString analysis of subcutaneous K-luc tumors using the mouse immune panel. 750 mRNA concentration measurements, measured in baseline cells first at day 0 and then in subcutaneously transplanted tumors in separate mice at day 7, 14, and 21 (n=2). Sample 507 is a tumor that was not treated with ICG-001, was harvested on day 21, and is a baseline for comparison for days 7, 14, and 21. The log10 fold-change in mRNA expression was considered between 507 and the other samples.
Animal studies. Syngeneic mice (C57BL/6) of 8-12 weeks of age were implanted with subcutaneous K-Luc tumors (n=8). 7 days after, when tumors became palpable and after confirmation of the tumor presence with BLU imaging, mice were implanted with Alzet minipumps with ICG001 (50 mg/kg/day). Pumps were continuously providing a daily dose of ICG-001. Tumor tissues were harvested on days 7, 14, 21 post pump implantation and tumors were prepared for IHC (paraffin sections) and Nanostring analysis.
NanoString analysis of subcutaneous murine K-luc GBM tumors The ICG-001 and saline control treated tumors were harvested on days 7, 14, and 21. Freshly frozen K-luc tumors were used for RNA isolation and NanoString analysis to determine endogenous immune response upon treatment with ICG-001. […]

[7] = system: CAR T cells (HER2 and mock); test: Viability and cell count of CAR T / mock T cells treated with ICG-001; type: cell-based; settings: ICG001 0, 2.5, 5 uM for 24-72 h
Description: FIG. 27. T cells treated with ICG001 2.5 and 5 μM for 24 or 72 h. (A) CAR Ts mock and HER2 from one donor and mock CARs derived from two additional donors were plated on 6-well format plates and treated with ICG001 at concentrations 0-5 μM for 24 or 72 h. Cells were collected from each well, counted, and viability was determined. (B, C) NanoString analysis of T cells treated with ICG-001 to determine concentration-dependent metabolic changes. […] (E) Correlation of differential gene expression in all T cell lines combined at concentration of 2.5 and 5 μM.
FIG. 29 is a bar graph showing the results of studies where CAR T calls are treated with ICG001 for 24 hours according to some embodiments. To determine how treatment with ICG001 affects the T cells, the following method was employed. On day 1, CAR Ts HER 2 or Mock CARs derived from the same donor and additional 2 donor mock cells were plated on 6 well format plates and treated with ICG001 0 uM, 2.5 uM, 5 uM for 24-72 h. On day 5, cells were collected per well, counted, cell viability was determined [pellets were frozen]. […] Note: CAR T from 494 donor treated with ICG001 were used in cytotoxicity assay #19 in comparison with untreated 4949 CARs.

[8] = system: PBT138 patient tumor-derived glioma cells; test: In vitro cytotoxicity assay, IL13Rα2-CAR T cells ± ICG-001; type: cell-based, human
Description: FIG. 2. Combinational strategy of CAR T cell-mediated tumor-antigen targeting with ICG-001 induced differentiation in glioma. […] (B) Cytotoxicity of HER2 CAR-T cells and tumor cells (1:5 ratio) was enhanced by ICG-001 at concentrations 1.25-5 μM. (C) Treatment of PBT138 patient glioma tumors with CAR T IL13Rα2+/−ICG-001.
It has also been observed that ICG-001-induced differentiation of PBT017 and PBT138 (data not shown).

[9] = system: normal somatic stem cell population; settings: preclinical studies; cited from earlier work
KIF20A = test: qRT-PCR of KIF20A in PBT147 and PBT030 cells; type: cell-based, human
Description: as §4

## O=C1[C@H](Cc2ccc(O)cc2)N2C(=O)CCN(C(=O)NCc3ccccc3)[C@H]2CN1Cc1cccc2ccccc12 [ICG-001]
[1]
  glycolytic activity and extracellular acidification of tumor cells: decrease in glycolytic activity and extracellular acidification
[2]
  expression of Wnt/p300/β-catenin target gene EphB2: upregulating
[2]; ICG-001 0-10 μM
  expression of Wnt/CBP/β-catenin target gene BIRC5/Survivin: selectively downregulated
[3]
  Survivin/BIRC5 luciferase reporter activity: downregulation
[4]
  effect on cell growth (growth kinetics): concentration dependent cytostatic effect
[5]
  blockade of β-catenin/CBP versus β-catenin/p300 interaction: selectively blocks the β-catenin/CBP interaction without interfering with the β-catenin/p300 interaction
[6]
  immune pathways (mRNA) in tumor versus untreated controls: concentration dependent increase in immune pathways
[7]
  CAR T cell viability and proliferation: not toxic to T cells in vitro
[7]; listed as ICG001
  CAR T cell viability and proliferation: not affecting Car T cell viability and proliferation
[8]
  tumor cell killing, ICG-001 in combination with IL13Rα2-CAR T cells: synergistic killing
[9]
  therapy-induced toxicity: ameliorated therapy-induced toxicity
KIF20A
  KIF20A expression: decreased expression of KIF20A
